Data published in publication PMC9137037 (Frontiers in Oncology, 2022).
Where two headings read alike, the source gives them in different places. Where no end group is shown, it is not given here.

Experiments:
cynomolgus monkeys = experiment: ELISA antibody titers, monkey study No.00213519; format: in vivo, Macaca fascicularis; settings: monkey 2nd set, 25, 100, 250 µg on days 1, 15, 29, 43, serum days 29, 43, 57, APi2568 as capture
Method: The non-human primate studies were carried out by the Charles River Laboratories (Ashland, OH USA). All the cynomolgus monkeys (Macaca fascicularis of Chinese origin) were obtained from Charles River Laboratories (Houston, TX, USA). In brief, the animals were approximately 2–4 years old and at the body weight between 2.2 and 3.1 kg at the initial dosing. The animals were kept at the temperature between 19°C and 24°C, humidity 30%–70%, and with 12 h light and 12 h dark light cycle. The Good manufacturing practice (GMP)-manufactured vaccine was used in the non-human primate study. […] Similar to mouse and dog dosing preparation, after the emulsion was prepared, a drop test was performed on each time of dosing to confirm that the emulsion had been prepared properly. […] All the animals’ body weights were monitored weekly after receiving. […]
Enzyme-linked immunosorbent assay (ELISA) was performed per our lab standard procedure. […] After washing, the antibody was detected using 50 μl of 0.15% H2O2 in 24 mM of citric acid and 5 mM of the sodium phosphate buffer (pH5.2) with 0.5 mg/ml 2, […] (3-ethylbenzthiazole- 6-sulfonic acid, ABTS; Sigma, St. Louis, MO, USA) as the chromophore. […] Absorbance was read at 415 nm using an ELISA microplate reader (SPECTRAmax PLUS384; Molecular Devices, San Jose, CA, USA). The highest dilution at the cutoff absorbance 0.2 were determined as the antibody titer. […]

[1] = Toxicokinetics of APi2568 in monkey plasma (UHPLC-MS/MS); format: in vivo, cynomolgus monkey; settings: for Cmax: UHPLC-MS/MS; for accumulation ratio (RA): TK profiles on days 1 and 43
Method: The non-human primate studies were carried out by the Charles River Laboratories (Ashland, OH USA). All the cynomolgus monkeys (Macaca fascicularis of Chinese origin) were obtained from Charles River Laboratories (Houston, TX, USA). In brief, the animals were approximately 2–4 years old and at the body weight between 2.2 and 3.1 kg at the initial dosing. The animals were kept at the temperature between 19°C and 24°C, humidity 30%–70%, and with 12 h light and 12 h dark light cycle. The Good manufacturing practice (GMP)-manufactured vaccine was used in the non-human primate study. […] Similar to mouse and dog dosing preparation, after the emulsion was prepared, a drop test was performed on each time of dosing to confirm that the emulsion had been prepared properly. […] The dose volume was split approximately equally across two different sites; 0.5 ml of the dose was intramuscularly (IM) injected into the right posterior lateral thigh, the left dosing was injected into the left site. All the animals’ body weights were monitored weekly after receiving. After each immunization, the animal body temperature was tested 6 and 24 h post each immunization. […] The animal bleed were collected before each time of immunization to monitor the antibody titers. There were two sets of non-human primate studies conducted. The first set of monkey study No.00213515 had 24 monkeys, 12 males, and 12 females divided into 4 groups: vehicle control, low dose 0.5 mg, medium dose 2 mg, and high dose 5 mg. There were 16 monkeys (8 males and 8 females) in the second set of monkey study No. 00213519. The monkeys in the four groups were vaccinated as follows: vehicle control, low dose 25 μg, medium dose 100 μg, and high dose 250 μg.
For the determination of TK parameters, blood samples were collected at various times after dosing analyzed using a validated UHPLC-MS/MS (ultra-high-performance liquid chromatography with tandem mass spectrometry) method, for the quantification of APi2568 in monkey plasma.

[2] = female, 2 mg/dose IM as PD1-Vaxx, day 43, mean
[3] = female, 5 mg/dose IM as PD1-Vaxx, day 1
[4] = female, 5 mg/dose IM as PD1-Vaxx, day 43, mean
[5] = male, 0.5 mg/dose IM as PD1-Vaxx, day 43, mean
[6] = male, 2 mg/dose IM as PD1-Vaxx, day 43, mean
[7] = male, 5 mg/dose IM as PD1-Vaxx, day 1
[8] = male, 5 mg/dose IM as PD1-Vaxx, day 43, mean

KLLSLIKGVIVHRLEGVEGPSLGAISLAPKAQIKESLRAEL [MVF-PD-1(92-110)]
anti-APi2568 antibody titers / immunogenicity (summary) (cynomolgus monkeys; listed as APi2568): high and were relatively uniform across sample collection days and between the APi2568 dose groups | anti-APi2568 antibody titers / immunogenicity (summary) (cynomolgus monkeys; listed as PD-1(92)): high immunogenicity | plasma concentrations relative to the LLOQ ([1]; day 43, 0.5 mg/dose group (both sexes) and 2 mg/dose female monkeys): ≤ 6 fold | T1/2 mean value ([1]; day 43, 2 and 5 mg/dose male monkeys and a single 5 mg/dose female monkey): approximately 13 h | Cmax/D ([1]; female, 0.5 mg/dose IM as PD1-Vaxx, day 43, mean): 17.6 (ng/ml)/(mg/dose) | AUC(0-t)/D [1, 2]: 47.3 (ngh/ml)/(mg/dose) | Cmax/D [1, 2]: 6.92 (ng/ml)/(mg/dose) | Tlast [1, 2]: 8 h | AUC(0-t)/D [1, 3]: 3.79 (ngh/ml)/(mg/dose) | Cmax/D [1, 3]: 0.954 (ng/ml)/(mg/dose) | Tlast [1, 3]: 4 h | AUC(0-t) ([1]; female, 5 mg/dose IM as PD1-Vaxx, day 1, AUC calculable in 1 monkey/sex): 18.9 ng·h/mL | T1/2 ([1]; female, 5 mg/dose IM as PD1-Vaxx, day 43, calculable for a single female monkey): 19.6 h | AUC(0-t)/D [1, 4]: 266 (ngh/ml)/(mg/dose) | Cmax/D [1, 4]: 31.9 (ng/ml)/(mg/dose) | Tlast [1, 4]: 34 h | Tmax [1, 4]: 1 h | Cmax ([1]; female, cynomolgus monkey, plasma, im, 0.5 mg/dose, female, 0.5 mg/dose IM as PD1-Vaxx, day 43, plasma, mean (generally n = 3)): 8.81 ng/mL | Tmax ([1]; female, cynomolgus monkey, plasma, im, 0.5 mg/dose, read-out: Tmax): 2 h | AUC(0-t) ([1]; female, cynomolgus monkey, plasma, im, 2 mg/dose, female, 2 mg/dose IM as PD1-Vaxx, day 43, mean, one female had significantly lower exposure, read-out: AUC(0-t)): 94.5 ng·h/mL | Cmax ([1]; female, cynomolgus monkey, plasma, im, 2 mg/dose, female, 2 mg/dose IM as PD1-Vaxx, day 43, plasma, mean (generally n = 3)): 13.8 ng/mL | Tmax ([1]; female, cynomolgus monkey, plasma, im, 2 mg/dose, read-out: Tmax): 4 h | Cmax ([1]; female, cynomolgus monkey, plasma, im, 5 mg/dose, female, 5 mg/dose IM as PD1-Vaxx, day 1, plasma, mean as printed): 4.77 ng/mL | AUC(0-t) ([1]; female, cynomolgus monkey, plasma, im, 5 mg/dose, female, 5 mg/dose IM as PD1-Vaxx, day 43, mean, read-out: AUC(0-t)): 1330 ng·h/mL | Cmax ([1]; female, cynomolgus monkey, plasma, im, 5 mg/dose, female, 5 mg/dose IM as PD1-Vaxx, day 43, plasma, mean (generally n = 3)): 160 ng/mL | Tmax ([1]; female, cynomolgus monkey, plasma, im, 5 mg/dose, read-out: Tmax): 1 h | AUC(0-t)/D [1, 5]: 125 (ngh/ml)/(mg/dose) | Tlast [1, 5]: 8 h | AUC(0-t)/D [1, 6]: 247 (ngh/ml)/(mg/dose) | Tlast [1, 6]: 24 h | AUC(0-t)/D [1, 7]: 30.1 (ngh/ml)/(mg/dose) | Cmax/D [1, 7]: 2.01 (ng/ml)/(mg/dose) | Tlast [1, 7]: 24 h | AUC(0-t)/D [1, 8]: 693 (ngh/ml)/(mg/dose) | Cmax/D [1, 8]: 40.5 (ng/ml)/(mg/dose) | Tlast [1, 8]: 48 h | Tmax [1, 8]: 1 h | AUC(0-t) ([1]; male, cynomolgus monkey, plasma, im, 0.5 mg/dose, male, 0.5 mg/dose IM as PD1-Vaxx, day 43, mean, read-out: AUC(0-t)): 62.3 ng·h/mL | Tmax ([1]; male, cynomolgus monkey, plasma, im, 0.5 mg/dose, read-out: Tmax): 1 h | half-life ([1]; male, cynomolgus monkey, plasma, im, 2 mg/dose): 13.1 h | AUC(0-t) ([1]; male, cynomolgus monkey, plasma, im, 2 mg/dose, male, 2 mg/dose IM as PD1-Vaxx, day 43, mean, read-out: AUC(0-t)): 494 ng·h/mL | Tmax ([1]; male, cynomolgus monkey, plasma, im, 2 mg/dose, read-out: Tmax): 1 h | half-life ([1]; male, cynomolgus monkey, plasma, im, 5 mg/dose): 12.7 h | AUC(0-t) ([1]; male, cynomolgus monkey, plasma, im, 5 mg/dose, male, 5 mg/dose IM as PD1-Vaxx, day 1, AUC calculable in 1 monkey/sex, read-out: AUC(0-t)): 151 ng·h/mL | Cmax ([1]; male, cynomolgus monkey, plasma, im, 5 mg/dose, male, 5 mg/dose IM as PD1-Vaxx, day 1, plasma, mean as printed): 10.1 ng/mL | AUC(0-t) ([1]; male, cynomolgus monkey, plasma, im, 5 mg/dose, male, 5 mg/dose IM as PD1-Vaxx, day 43, mean, read-out: AUC(0-t)): 3460 ng·h/mL | Cmax ([1]; male, cynomolgus monkey, plasma, im, 5 mg/dose, male, 5 mg/dose IM as PD1-Vaxx, day 43, plasma, mean (generally n = 3)): 202 ng/mL | Tmax ([1]; male, cynomolgus monkey, plasma, im, 5 mg/dose, read-out: Tmax): 2 h | accumulation ratio (RA) ([1]; single female monkey, 5 mg/dose): 121 | accumulation ratio (RA) ([1]; single male monkey, 5 mg/dose): 16.3
